Measurements: publication PMC6127322, “Novel Imidazole and Methoxybenzylamine Growth Inhibitors Affecting Salmonella Cell Envelope Integrity and its Persistence in Chickens” (Scientific Reports, 2018)
In brackets after ≈: the same amount, converted by molar mass.

What was measured:
[1] = system: chicken cecal microbiota; assay: Cecal microbiota, 16S rRNA sequencing; type: in vivo; conditions: compared to the DMSO group, P < 0.01
[2] = system: Galleria mellonella larvae; assay: Toxicity on G. mellonella larvae; type: in vivo; conditions: uninfected larvae, single treatment with 12.5 µg of SM, 72 hrs
Description: Galleria mellonella larvae (fifth instar stage) were incubated for 12 hrs at 37 °C in the dark. After incubation, only larvae with a white creamy phenotype and a body weight ranging between 225 to 275 mg were selected for the study. […] Larval survival was monitored on 12 hrs intervals. Not treated larvae, larvae treated with the buffer mix, and larvae treated with 12.5 µg of chloramphenicol were used as controls.

[3] = system: S. Typhimurium cell membrane; assay: Confocal microscopy, FM4-64 and SYTO9 staining; type: cell-based, Salmonella enterica subsp. enterica serovar Typhimurium; conditions: 5X MBC for 3 hrs, compared to DMSO control
Description: An overnight suspension of S. […] The effect of the SMs on S. Typhimurium was assessed using confocal microscopy as previously described. Cells were stained for 45 min using FM4–64 (2 µg/ml; […] Invitrogen). Three microliters of stained bacteria were transferred onto agarose (1.2%) -coated glass slides. Microscopy was performed using a Leica TCS SP6 confocal scanning microscope with FM4–64 (515 nm/640 nm) and SYTO-9 (485 nm/498 nm) filters.

[4] = system: Salmonella Heidelberg; assay: Dose-response assay (MBC) on Salmonella serovars; type: cell-based; conditions: Salmonella enterica; serovar Heidelberg, M9 broth
[5] = system: Campylobacter jejuni 81–176; assay: Activity spectrum on foodborne pathogens; type: cell-based; conditions: 200 µM
[6] = system: biofilm embedded S. Typhimurium; assay: MBEC high-throughput assay on biofilm; type: cell-based, Salmonella enterica subsp. enterica serovar Typhimurium; conditions: 18 hrs incubation; for MBC on biofilm embedded Salmonella: M9 medium; for Cidal concentration on biofilm relative to planktonic MBC: compared to planktonic dose-response in parallel
Description: The antimicrobial efficacy of the four SMs was tested on biofilm embedded S. Typhimurium as previously described. Briefly, 150 µl of an overnight suspension of S. Typhimurium normalized to 0.05 OD600 in LB medium was transferred into each well of a sterile, non-treated, flat bottom 96-well plate. The plate was covered using the lid containing the pegs (Innovotech), sealed with parafilm, and incubated for 36 hrs at 37 °C. […] The plate was incubated for 18 hrs at 37 °C, 110 rpm in the dark. After incubation, the pegs were transferred to a new 96-well plate containing 200 µl of sterile water and sonicated for 60 min at room temperature (Aquasonic model 50HT, VWR). Removal of the biofilm was confirmed by crystal violet staining. The supernatant was ten-fold serial diluted, plated on an agar plate, and incubated at 37 °C for 36 hrs. The lowest SM concentration giving a complete clearance was considered as MBEC. […] In parallel to this experiment, a dose-response assay with planktonic cells was conducted as described above.

[7] = system: S. Typhimurium cell surface; assay: Scanning electron microscopy (SEM); type: cell-based, Salmonella enterica subsp. enterica serovar Typhimurium; conditions: 5X MBC for 3 hrs, compared to DMSO control
Description: Processing of the samples for SEM was performed with the same samples as above and as previously described. Briefly, one volume of bacterial suspension was mixed with one volume of fixative (3% glutaraldehyde, 1% paraformaldehyde in 0.1 M potassium phosphate buffer pH 7.2), and incubated for 2 hrs at 4 °C. Fixed cells were centrifuged for 5 min at 1,200 g, washed twice with 1X PBS, and resuspended into 1% osmium tetroxide for 1 hr at room temperature in the dark, followed by serial dehydration of the sample in ethanol and platinum splatter-coating. Visualization and imaging of the samples was performed using a Hitachi S-4700 scanning electron microscope.

[8] = system: S. Typhimurium in infected Caco-2, HD11, and THP-1 cell lines; assay: S. Typhimurium survival in infected cell lines, summary over lines; type: cell-based, Salmonella enterica subsp. enterica serotype Typhimurium; conditions: over the three cell lines
Description: The ability of four SMs to clear S. Typhimurium was evaluated using three cell lines (Caco-2 cells, HD11, and THP-1 cells) as previously described. A multiplicity of infection (MOI) of 10 was used. Infected cells were treated with 1 µl of SMs (final concentration ranged between 100 µM and 6.25 µM) and incubated at 37 °C for 24 hrs in humidified, 5% CO2 incubator. Following incubation, cells were washed once with 1X PBS, lysed with 0.1% Triton-100X, serial ten-fold diluted in 1X PBS, and plated on agar plate. Plates were incubated at 37 °C for 24 hrs to determine the intracellular bacteria. Cells not infected and not treated, and cells infected and treated with 2% DMSO were used as controls.

[9] = system: Salmonella Anatum; assay: Dose-response assay (MBC) on Salmonella serovars; type: cell-based; conditions: Salmonella enterica; serovar Anatum, M9 broth
[10] = system: Salmonella Braenderup; assay: Dose-response assay (MBC) on Salmonella serovars; type: cell-based; conditions: Salmonella enterica; serovar Braenderup, M9 broth
[11] = system: avian Mycoplasma gallisepticum; assay: Activity spectrum on avian pathogens; type: cell-based; conditions: 100 µM, unpublished data
[12] = system: Salmonella Albany; assay: Dose-response assay (MBC) on Salmonella serovars; type: cell-based; conditions: Salmonella enterica; serovar Albany, M9 broth
[13] = system: Lactobacillus rhamnosus GG; assay: Growth of probiotic bacteria at 200 µM; type: cell-based; conditions: data not shown
[14] = system: Bifidobacterium longum; assay: Growth of probiotic bacteria at 200 µM; type: cell-based; conditions: data not shown
[15] = system: PhoP regulon in S. Typhimurium; set-up: method as in PubChem bioassay AID #1863, #1981, #2253, and #2401; conditions: ref PubChem bioassay AID #1863, #1981, #2253, and #2401; cited from earlier work
[16] = system: Lactobacillus brevis; assay: Growth of probiotic bacteria at 200 µM; type: cell-based; conditions: data not shown

## CC1CCC(C(C)C)C(OC(=O)Cn2c[n+](CC(=O)OC3CC(C)CCC3C(C)C)c3ccccc32)C1 (stereo not drawn) [SM1]
[1]
  Salmonella OTUs in ceca: reduction
[2]
  Larva survival: 66%
[3]
  Membrane phenotype, FM4–64 staining: No signal was detected
[4]
  MBC: 100 µM
[5]
  Effect on Campylobacter jejuni 81–176: lethal
[6]
  MBC on biofilm embedded Salmonella: 40 µM
  Cidal concentration on biofilm relative to planktonic MBC: 0.8 X MBC
[7]
  Cell surface phenotype in SEM: distorted

## CCCCCCCCCCCCCCCC[n+]1ccn(CC#N)c1 [SM3]
[8]
  Concentration clearing internalized Salmonella: 50 µM
[2]
  Larva survival: 85%
[3]
  Membrane phenotype, FM4–64 staining: No signal was detected
[9]
  MBC: 25 µM
[4]
  MBC: 50 µM
[10]
  MBC: 25 µM
[11]
  Effect on Mycoplasma gallisepticum: lethal
[6]
  MBC on biofilm embedded Salmonella: 15 µM
  Cidal concentration on biofilm relative to planktonic MBC: 0.6 X MBC
[12]
  MBC: 25 µM

## CCOc1cc(/C=N/N=C(N)N)ccc1OCc1ccc(Cl)cc1 [SM5]
[13]
  Effect on growth of Lactobacillus rhamnosus GG: did not affect the growth
[1]
  Salmonella OTUs in ceca: reduction
[14]
  Effect on growth of Bifidobacterium longum: did not affect the growth
[2]
  Larva survival: 92%
[3]
  Membrane phenotype, FM4–64 staining: a bright red spot was detected within every bacterium
[15]
  Activity on the PhoP regulon: direct or indirect inhibitor
[4]
  MBC: 50 µM (≈ 17.3 µg/mL)
[11]
  Effect on Mycoplasma gallisepticum: lethal
[16]
  Effect on growth of Lactobacillus brevis: did not affect the growth
[6]
  MBC on biofilm embedded Salmonella: 25 µM (≈ 8.67 µg/mL)
[7]
  Cell surface phenotype in SEM: outer membrane vesicles of approximately 100 to 300 nm diameter
[12]
  MBC: 100 µM (≈ 34.7 µg/mL)
